In publication PMC5394527 (Journal of Medicinal Chemistry, 2017):
Read-outs that look alike come from different tables or passages of the source.

How the values were obtained:
[1] = tested on: p53 activation (MDM2, p53, p21, cleaved PARP, cleaved caspase-3) in SJSA-1 tumors; conditions: mice, single oral dose 100 mg/kg
[2] = tested on: SJSA-1 osteosarcoma tumor xenograft; conditions: for antitumor activity in SJSA-1 xenograft model: mice; for antitumor efficacy (regression): last line of Table 6, SJSA-1 xenograft model in mice; for weight loss of mice during the experiment: SJSA-1 xenograft experiment, 30 or 100 mg/kg daily for 14 days
[3] = tested on: SJSA-1 osteosarcoma tumor xenograft; conditions: mice; cited from earlier work
SJSA-1 cancer cell line [4] = conditions: cited from earlier work
MDM2 = MDM2 (Homo sapiens, UniProt Q00987)
SJSA-1 cancer cell line [5] = assay: cells; conditions: Homo sapiens, SJSA-1, read-out: SJSA-1 IC50, cell growth inhibition
[6] = cited from earlier work
[7] = tested on: RS4;11 acute lymphoblastic leukemia xenograft; conditions: for antitumor activity in RS4;11 xenograft model: mice
[8] = oral gavage 100 mg/kg daily for 14 days
[9] = oral 30 mg/kg daily for 14 days

Chain of MDM2 (Q00987 whole entry): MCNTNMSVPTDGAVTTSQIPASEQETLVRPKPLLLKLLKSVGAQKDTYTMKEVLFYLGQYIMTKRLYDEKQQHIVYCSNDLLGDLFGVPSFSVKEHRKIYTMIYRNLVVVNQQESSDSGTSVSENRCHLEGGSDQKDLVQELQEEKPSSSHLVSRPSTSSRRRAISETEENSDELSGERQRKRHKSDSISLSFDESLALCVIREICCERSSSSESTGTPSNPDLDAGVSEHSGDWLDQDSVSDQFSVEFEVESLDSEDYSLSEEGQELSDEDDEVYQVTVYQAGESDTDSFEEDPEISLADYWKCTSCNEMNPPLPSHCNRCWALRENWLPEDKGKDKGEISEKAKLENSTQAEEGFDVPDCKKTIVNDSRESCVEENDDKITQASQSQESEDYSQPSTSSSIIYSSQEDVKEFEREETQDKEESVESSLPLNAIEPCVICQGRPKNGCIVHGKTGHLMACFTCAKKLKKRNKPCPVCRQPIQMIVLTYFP

CC(C)(C)C[C@@H]1N[C@@H](C(=O)N[C@H]2CC[C@H](O)CC2)[C@H](c2cccc(Cl)c2F)[C@]12C(=O)Nc1cc(Cl)ccc12 [Compound 2, reference compound]
apoptosis induction (cleavage of PARP and caspase-3) in SJSA-1 xenograft tumor tissue [1]: induce strong apoptosis
p53 activation (MDM2, p53, p21 levels) in SJSA-1 xenograft tumor tissue [1]: robust activation of p53
purity retained (in solutions after 7 days (slow isomerization)): 93–96%
antitumor activity in SJSA-1 xenograft model [2, 8]: complete tumor regression

O=C(N[C@H]1CC[C@H](O)CC1)[C@@H]1NC2(CCCCC2)[C@@]2(C(=O)Nc3cc(Cl)ccc32)[C@H]1c1cccc(Cl)c1F [Compound 6, (3′R,4′S,5′R)-6″-Chloro-4′-(3-chloro-2-fluorophenyl)-N-((1r,4R)-4-hydroxycyclohexyl)-2″-oxodispiro[cyclohexane-1,2′-pyrrolidine-3′,3″-indoline]-5′-carboxamide]
antitumor activity in SJSA-1 xenograft model [3]: strong tumor growth inhibition but not complete tumor regression
decomposition (after 2 days in cell culture media, UPLC): < 1%
IC50 (SJSA-1 cancer cell line [4]; read-out: SJSA-1 cell growth inhibition IC50): 190 nM

CNC(=O)[C@@H]1NC2(CCNCC2)[C@@]2(C(=O)Nc3cc(Cl)ccc32)[C@H]1c1cccc(Cl)c1F [Compound 8, (3R,4′S,5′R)-6-Chloro-4′-(3-chloro-2-fluorophenyl)-N-methyl-2-oxodispiro[indoline-3,3′-pyrrolidine-2′,4″-piperidine]-5′-carboxamide]
no appreciable binding to MDM2 up to (MDM2): > 2 µM

CN1[C@@H](c2nc(CC(=O)O)cs2)[C@H](c2cccc(Cl)c2F)[C@]2(C(=O)Nc3cc(Cl)ccc32)C12CCCCC2 [Compound 27, 2-(2-((3′R,4′S,5′R)-6″-Chloro-4′-(3-chloro-2-fluorophenyl)-1′-methyl-2″-oxodispiro[cyclohexane-1,2′-pyrrolidine-3′,3″-indolin]-5′-yl)thiazol-4-yl)acetic Acid]
IC50 (SJSA-1 cancer cell line [5]): > 2000 nM

O=C(O)[C@@H]1NC2(CCCCC2)[C@@]2(C(=O)Nc3cc(Cl)ccc32)[C@H]1c1cccc(Cl)c1F [Compound 29]
IC50 (SJSA-1 cancer cell line [4]; read-out: SJSA-1 IC50, cell growth inhibition): > 10000 nM

O=C(N[C@H]1CC[C@H](C(=O)O)CC1)[C@@H]1NC2(CCCCC2)[C@@]2(C(=O)Nc3cc(Cl)ccc32)[C@H]1c1cccc(Cl)c1F [Compound 33, (1R,4r)-4-((3′R,4′S,5′R)-6″-Chloro-4′-(3-chloro-2-fluorophenyl)-2″-oxodispiro[cyclohexane-1,2′-pyrrolidine-3′,3″-indoline]-5′-carboxamido)cyclohexane-1-carboxylic Acid]
stability in solution (CH3CN/H2O, MeOH/H2O or cell culture media, 2 days): can decompose in solution
antitumor activity in SJSA-1 xenograft model [2, 8]: effectively retard tumor growth, it failed to achieve tumor regression

O=C(O)c1ccc(NC(=O)[C@@H]2NC3(CCCCC3)[C@@]3(C(=O)Nc4cc(Cl)ccc43)[C@H]2c2cccc(Cl)c2F)cc1 [Compound 39]
antitumor activity in SJSA-1 xenograft model [3]: partial tumor regression
stability in solution [6]: very stable in solution

CC1(C)CCC2(CC1)N[C@@H](C(=O)Nc1ccc(C(=O)O)cc1)[C@H](c1cccc(Cl)c1F)[C@]21C(=O)Nc2cc(Cl)ccc21 [Compound 54, 4-((3′R,4′S,5′R)-6″-Chloro-4′-(3-chloro-2-fluorophenyl)-4,4-dimethyl-2″-oxodispiro[cyclo-hexane-1,2'-pyrrolidine-3′,3″-indoline]-5'-carboxamido)benzoic Acid]
antitumor efficacy (regression) [2]: 87% regression
antitumor activity in SJSA-1 xenograft model ([2]; oral gavage 50 mg/kg daily for 14 days): effectively retards tumor growth

O=C(NC12CCC(C(=O)O)(CC1)CC2)[C@@H]1NC2(CCCCC2)[C@@]2(C(=O)Nc3cc(Cl)ccc32)[C@H]1c1cccc(Cl)c1F [Compound 56, 4-((3′R,4′S,5′R)-6″-Chloro-4′-(3-chloro-2-fluorophenyl)-2″-oxodispiro[cyclohexane-1,2′-pyrrolidine-3′,3″-indoline]-5′-carboxamido)bicyclo[2.2.2]octane-1-carboxylic Acid]
apoptosis induction (cleavage of PARP and caspase-3) in SJSA-1 xenograft tumor tissue [1]: no cleavage of PARP and caspase-3
weight loss of mice during the experiment [2]: no or minimal weight loss
antitumor efficacy (regression) [2]: no regression

O=C(NC12CCC(C(=O)O)(CC1)CC2)[C@@H]1NC2(CCC(F)(F)CC2)[C@@]2(C(=O)Nc3cc(Cl)ccc32)[C@H]1c1cccc(Cl)c1F [Compound 57, 4-((3′R,4′S,5′R)-6″-Chloro-4′-(3-chloro-2-fluorophenyl)-4,4-difluoro-2″-oxodispiro[cyclohexane-1,2′-pyrrolidine-3′,3″-indoline]-5′-carboxamido)bicyclo[2.2.2]octane-1-carboxylic Acid]
apoptosis induction (cleavage of PARP and caspase-3) in SJSA-1 xenograft tumor tissue [1]: modest effect on activation of p53 and induction of cleavage of PARP and caspase-3

CS(=O)(=O)NC(=O)C12CCC(NC(=O)[C@@H]3NC4(CCCCC4)[C@@]4(C(=O)Nc5cc(Cl)ccc54)[C@H]3c3cccc(Cl)c3F)(CC1)CC2 [Compound 58, (3′R,4′S,5′R)-6″-Chloro-4′-(3-chloro-2-fluorophenyl)-N-(4-((methylsulfonyl)carbamoyl)-bicyclo[2.2.2]octan-1-yl)-2″-oxodispiro[cyclohexane-1,2′-pyrrolidine-3′,3″-indoline]-5′-carboxamide]
apoptosis induction (cleavage of PARP and caspase-3) in SJSA-1 xenograft tumor tissue [1]: modest effect on activation of p53 and induction of cleavage of PARP and caspase-3

CN1[C@@H](C(=O)NC23CCC(C(=O)O)(CC2)CC3)[C@H](c2cccc(Cl)c2F)[C@]2(C(=O)Nc3cc(Cl)ccc32)C12CCCCC2 [Compound 59, 4-((3′R,4′S,5′R)-6″-Chloro-4′-(3-chloro-2-fluorophenyl)-1′-methyl-2″-oxodispiro[cyclohexane-1,2′-pyrrolidine-3′,3″-indoline]-5′-carboxamido)bicyclo[2.2.2]octane-1-carboxylic Acid]
persistence of p53 activation in SJSA-1 xenograft tumor tissue [1]: 24 h
weight loss of mice during the experiment [2]: no or minimal weight loss
antitumor activity in SJSA-1 xenograft model [2, 9]: effectively inhibits tumor growth
antitumor activity in SJSA-1 xenograft model [2, 8]: complete and long-lasting tumor regression

CCN1[C@@H](C(=O)NC23CCC(C(=O)O)(CC2)CC3)[C@H](c2cccc(Cl)c2F)[C@]2(C(=O)Nc3cc(Cl)ccc32)C12CCCCC2 [Compound 60, 4-((3′R,4′S,5′R)-6″-Chloro-4′-(3-chloro-2-fluorophenyl)-1′-ethyl-2″-oxodispiro[cyclohexane-1,2′-pyrrolidine-3′,3″-indoline]-5′-carboxamido)bicyclo[2.2.2]octane-1-carboxylic Acid]
persistence of p53 activation in SJSA-1 xenograft tumor tissue [1]: 24 h
chemical stability in solutions (1:1 CH3CN/H2O, 1:1 MeOH/H2O, cell culture media, 7 days): very stable in solutions for a period of 7 days
antitumor activity in RS4;11 xenograft model ([7]; 200 mg/kg weekly dosing for 3 weeks): partial tumor regression
tolerability in RS4;11 xenograft experiment ([7]; mice, 50, 75, 100 mg/kg daily or 200 mg/kg weekly): well tolerated at all doses and schedules
antitumor activity in RS4;11 xenograft model ([7]; oral 100 mg/kg daily for 14 days): partial tumor regression
weight loss of mice during the experiment [2]: no or minimal weight loss
antitumor activity in SJSA-1 xenograft model [2, 9]: effectively inhibits tumor growth
antitumor activity in SJSA-1 xenograft model [2, 8]: complete and long-lasting tumor regression
